Results on one substance are retold here after patent publication US11815435B2, “Beta glucan immunopharmacodynamics” (HiberCell, Inc., priority 2017, dated 2023).

The experiment relates to anti-β-glucan antibody (IgG ABA). Kind of experiment: Anti-β-glucan antibody (ABA) levels in serum by ELISA after IV PGG, Phase I healthy donor trial. It counts as in vivo, human. Conditions: for ABA level changes: single dose PGG IV. Here is the method: IPD changes induced by yeast soluble β-glucan were evaluated in a Phase I healthy donor trial, which included three cohorts of 12 healthy human volunteers aged 18-65 years. In Cohort 1, subjects were administered a single dose of 4 mg/kg yeast soluble β-glucan by IV infusion over 2-3 hours. In Cohort 2, subjects were administered 4 mg/kg PGG by IV infusion over 2-3 hours once weekly for 3 weeks. Half of the subjects received premedications which included low dose corticosteroids (4 mg of dexamethasone, PO) and low-dose H1 antagonists (50 mg diphenhydramine.
In Cohort 3, subjects received either 2 mg/kg PGG or 4 mg/kg PGG by IV infusion over 1-2 hours. The subjects were administered either dose of PGG once weekly for 2 weeks, then given a 2 week wash out (no PGG) and finally received one more dose of PGG (week 5). Adverse events and complete blood counts were evaluated. In addition, whole blood and serum was evaluated for the following at various time points post-infusion: PGG binding to immune cells (monocytes, neutrophils, B-cells, DC subsets), complement activation (C5a and Sc5b9), serum cytokine/chemokine levels, IgG ABA levels, flow cytometry of immune cells, circulating immune complex formation and Quantigene analysis of transcriptional profile. Table 1 lists each subject's pre-dose IgG ABA levels, PGG dose and whether they received premedications.
Subjects were stratified/classified into subgroups based on pre-infusion ABA levels. ABA cutoff levels were selected based on prior studies and are only exemplary. Classification may include only 2 subgroups based on an IgG ABA cutoff level of 15 μg/ml, 20 μg/ml, 25, μg/ml, 30 μg/ml, 35 μg/ml, 40 μg/ml, 45 μg/ml or 50 μg/ml. Classification may also include 3, 4, 5 or more subgroups with each subgroup corresponding to a specific IgG ABA level range. For example, a 3 subgroup classification may include a Low-ABA subgroup encompassing ABA level ranges of <15 μg/ml, <20 μg/ml, <25 μg/ml or <30 μg/ml, a Mid-ABA subgroup encompassing a range having a low end ABA level of 20 μg/ml, 25 μg/ml, 30 μg/ml, 35 μg/ml, 40 μg/ml or 45 μg/ml and a high end ABA level of 30 μg/ml, 35 μg/ml, 40 μg/ml, 45 μg/ml, 50 μg/ml or 55 μg/ml, and a High-ABA subgroup encompassing ABA level ranges of >35 μg/ml, >40 μg/ml, >45 μg/ml, >50 μg/ml, >55 μg/ml, >60 μg/ml, >65 μg/ml or >70 μg/ml. As discussed in International Published Application No. WO2015084732A1, various ABA cutoff levels may be used for reasons such as differences in soluble β-glucan immunotherapy treatments and preferences regarding inclusiveness and exclusiveness of subgroups. Here, subjects whose ABA levels were less than 20 μg/ml were considered Low-ABA. Subjects with ABA levels between 20 μg/ml and 50 μg/ml were considered Mid-ABA. Subjects with ABA levels greater than 50 μg/ml were High-ABA. Serum and cellular IPD markers were analyzed pre-infusion, 15 minutes, 30 minutes and 1 hour post-infusion, end of infusion (EOI) and 1 hour, 2 hours, 3 hours, 4 hours, 24 hours, 48 hours and 168 hours after EOI.
ABA levels were then followed in subjects through single and multiple doses of PGG. ABA levels were measured in serum by ELISA, and subjects were placed in subgroups based on pre-infusion ABA levels: Low-ABA (<20 μg/mL), Mid-ABA (20-50 μg/mL) or High-ABA (>50 μg/mL). Whole blood or serum was drawn from the subjects at various time points before and after a single dose (Cohort 1) or multiple weekly doses (Cohorts 2 and 3) of PGG infusion. […] In some cases, such as shown for subject 67 in the Low-ABA subgroup, the increase may lead to a change in subgroup (Low-ABA to Mid-ABA).
Increasing the time between soluble β-glucan doses may not only promote repeated acute IPD responses but also enhance acute IPD responses, which may increase the effectiveness of soluble β-glucan therapy. […]
A general note: An ELISA detects its analyte on a solid surface through an enzyme-linked reagent.

Regarding “β(1,6)-[poly-(1,3)-D-glucopyranosyl]-poly-β(1,3)-D-glucopyranose [PGG]”, the “ABA levels over the 5 week course of treatment” value (Cohort 3: weeks 1, 2, 2 week wash out, week 5 dose, High-, Mid-, Low-ABA subjects) was “Increases in ABA were seen in all subjects with the largest increase occurring after administration of the week 5 dose”. Moreover, the ABA subgroup classification result (Cohort 3 Low-ABA subject, after the last (week 5) dose) was “converted to the Mid-ABA classification”. Besides, the ABA level changes result by setting is: (High-ABA (>50 μg/ml) healthy subjects) “dropped during infusion with PGG and then rebounded about 48 hours EOI”; (Low-ABA (<20 μg/ml) healthy subjects) “essentially unaffected”; (Mid-ABA (20-50 μg/ml) healthy subjects) “increased at 48 hours after the EOI”. For the same substance, the “ABA levels after multiple doses” value (multiple weekly doses of PGG (Cohorts 2 and 3)) is “can increase ABA levels for some subjects”.
